Where two headings read alike, the source gives them in different places.
Columns and labels:
[1] = molecular target: human recombinant 5-HT2C receptor (Homo sapiens (Human), UniProt P28335); experiment: 5-HT2C receptor binding inhibition test ([3H]-Mesulergine); conditions: Jump-In HEK cell membrane, [3H]-Mesulergine
Procedure: (§1) (Each Experimental Condition)
Cell membrane: Jump-In HEK cell membrane (expressing human recombinant 5-HT2C receptor)
(§2) Assay buffer: Tris-HCl 50 mmol/L (pH 7.4) containing NaCl 120 mmol/L, MgCl2.6H2O 1 mmol/L, KCl 5 mmol/L, 0.1% BSA, and CaCl2 2 mmol/L
Radioactive ligand: [^3H]-Mesulergine around Kd value calculated by the following method
(§3) Non-specific ligand: Serotonin HCl
The Kd value was calculated when the lot of cell membrane was changed. In advance, 0.5 μL of a 1 mmol/L compound for non-specific binding calculation dissolved in DMSO or DMSO was dispensed into a microplate, and the cell membrane was diluted with an Assay buffer. The radioactive ligand solution was serially diluted and the count was confirmed with a liquid scintillator. Assay buffer containing diluted cell membrane was dispensed into a microplate at 50 μL/well. Then, the radioactive ligand solution was dispensed into a microplate at 50 μL/well, and the plate was sealed. It was allowed to stand at room temperature (25° C.) for 1.5 hours. During this period, 50 mmol/L Tris-HCl (pH 7.4) was dispensed into a GF/B UniFilter plate at 50 μL/well and allowed to stand at […] for 1 hour or longer. After that, filtration was performed with Cell harvester (PerkinElmer). The radioactive ligand solution was dispensed into an empty well of the GF/B UniFilter plate at 10 μL/well. After the GF/B UniFilter plate was dried at room temperature, MicroScinti 20 was dispensed into the GF/B UniFilter plate at 50 μL/well, and the plate was sealed. The GF/B UniFilter plate was allowed to stand overnight at room temperature. […] The Saturation curve was drawn from the measured value, and the Kd value was calculated from the slope of the Scatchard Plot.
(§4) (Binding Test of the Compound According to the Present Invention)
In advance, 0.5 μL of the compound solution dissolved in DMSO was dispensed into a microplate, and the cell membrane and the hot ligand were diluted with Assay buffer, respectively. Then, the Assay buffer containing the diluted cell membrane was dispensed into a microplate at 50 μL/well. Then, the radioactive ligand solution was dispensed into a microplate at 50 μL/well, and the plate was sealed. Then, it was allowed to stand at 37° C. for 2 hours. During this period, 50 mmol/L Tris-HCl (pH 7.4) was dispensed into a GF/B UniFilter plate at 50 μL/well and allowed to stand at 4° C. for 1 hour or longer. After that, filtration was performed with Cell harvester (PerkinElmer). After the GF/B UniFilter plate was dried at room temperature, MicroScinti 20 was dispensed into the GF/B UniFilter plate at 50 μL/well, and the plate was sealed. The GF/B UniFilter plate was allowed to stand overnight at room temperature. […] The non-specific binding was calculated from the radioactivity of [^3H]-Mesulergine in the presence of […] Serotonin HCl with the unlabeled ligand, and the total binding was calculated from the radioactivity of [^3H]-Mesulergine in the absence of the compound according to the present invention (Vehicle). Finally, the Ki value was calculated from the dose-response curve.
(§5) (The binding activity of the compound according to the present invention was calculated from the following binding inhibition rate (%).)
(§6) Inhibition rate (%)=[1−(c−a)/(b−a)]×100 • a; mean cpm of non-specific binding • b; mean cpm of total binding • c; cpm in the presence of the test compound

[2] = molecular target: human recombinant 5-HT2A receptor (Homo sapiens (Human), UniProt P28223); experiment: 5-HT2A receptor binding inhibition test ([3H]-Ketanserin); conditions: Jump-In HEK cell membrane
Procedure: Test Example 1: 5-HT2A Receptor Binding Inhibition Test
as §1
Cell membrane: Jump-In HEK cell membrane (expressing human recombinant 5-HT2A receptor)
as §2
Radioactive ligand: [^3H]-Ketanserin around Kd value calculated by the following method
as §3
The Kd value was calculated when the lot of cell membrane was changed. In advance, 0.5 μL of a 1 mmol/L compound for non-specific binding calculation dissolved in DMSO or DMSO was dispensed into a microplate, and the cell membrane was diluted with an Assay buffer. The radioactive ligand solution was serially diluted and the count was confirmed with a liquid scintillator. Assay buffer containing diluted cell membrane was dispensed into a microplate at 50 μL/well. Then, the radioactive ligand solution was dispensed into a microplate at 50 μL/well, and the plate was sealed. It was allowed to stand at room temperature (25° C.) for 1.5 hours. During this period, 50 mmol/L Tris-HCl (pH 7.4) was dispensed into a GF/B UniFilter plate at 50 μL/well and allowed to stand at 4° C. for 1 hour or longer. After that, filtration was performed with Cell harvester (PerkinElmer). The radioactive ligand solution was dispensed into an empty well of the GF/B UniFilter plate at 10 μL/well. After the GF/B UniFilter plate was dried at room temperature, MicroScinti 20 was dispensed into the GF/B UniFilter plate at 50 μL/well, and the plate was sealed. The GF/B UniFilter plate was allowed to stand overnight at room temperature. The radioactivity of [^3H]-Ketanserin bound to the 5-HT2A receptor was measured using Microbeta2 (PerkinElmer) at a measurement time of 1 min/well. The Saturation curve was drawn from the measured value, and the Kd value was calculated from the slope of the Scatchard Plot.
as §4
In advance, 0.5 μL of the compound solution dissolved in DMSO was dispensed into a microplate, and the cell membrane and the hot ligand were diluted with Assay buffer, respectively. Then, the Assay buffer containing the diluted cell membrane was dispensed into a microplate at 50 μL/well. Then, the radioactive ligand solution was dispensed into a microplate at 50 μL/well, and the plate was sealed. Then, it was allowed to stand at room temperature (25° C.) for 1.5 hours. During this period, 50 mmol/L Tris-HCl (pH 7.4) was dispensed into a GF/B UniFilter plate at 50 μL/well and allowed to stand at 4° C. for 1 hour or longer. After that, filtration was performed with Cell harvester (PerkinElmer). After the GF/B UniFilter plate was dried at room temperature, MicroScinti 20 was dispensed into the GF/B UniFilter plate at 50 μL/well, and the plate was sealed. The GF/B UniFilter plate was allowed to stand overnight at room temperature. The radioactivity of [^3H]-Ketanserin bound to the 5-HT2A receptor was measured using Microbeta2 (PerkinElmer) at a measurement time of 1 min/well. The non-specific binding was calculated from the radioactivity of [^3H]-Ketanserin in the presence of […] Serotonin HCl with the unlabeled ligand, and the total binding was calculated from the radioactivity of [^3H]-Ketanserin in the absence of the compound according to the present invention (Vehicle). Finally, the Ki value was calculated from the dose-response curve.
as §5, §6

[3] = read-out: human serotonin 5-HT2C receptor binding inhibitory activity, Ki value
[4] = read-out: human serotonin 5-HT2A receptor binding activity, Ki value

human recombinant 5-HT2A receptor, sequence (P28223 whole entry): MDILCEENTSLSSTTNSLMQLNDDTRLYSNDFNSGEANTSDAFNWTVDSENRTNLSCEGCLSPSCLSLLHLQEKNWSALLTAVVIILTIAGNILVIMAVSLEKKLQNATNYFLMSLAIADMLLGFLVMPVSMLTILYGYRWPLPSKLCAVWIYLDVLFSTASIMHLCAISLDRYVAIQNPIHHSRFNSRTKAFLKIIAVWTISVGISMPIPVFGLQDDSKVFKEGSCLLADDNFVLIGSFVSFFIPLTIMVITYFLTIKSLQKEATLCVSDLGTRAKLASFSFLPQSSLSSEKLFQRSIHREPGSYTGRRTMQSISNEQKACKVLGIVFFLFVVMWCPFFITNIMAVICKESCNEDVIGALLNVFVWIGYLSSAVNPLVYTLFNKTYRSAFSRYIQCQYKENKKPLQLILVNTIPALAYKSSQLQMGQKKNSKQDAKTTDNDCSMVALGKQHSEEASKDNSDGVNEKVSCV
human recombinant 5-HT2C receptor, sequence (P28335 33-458): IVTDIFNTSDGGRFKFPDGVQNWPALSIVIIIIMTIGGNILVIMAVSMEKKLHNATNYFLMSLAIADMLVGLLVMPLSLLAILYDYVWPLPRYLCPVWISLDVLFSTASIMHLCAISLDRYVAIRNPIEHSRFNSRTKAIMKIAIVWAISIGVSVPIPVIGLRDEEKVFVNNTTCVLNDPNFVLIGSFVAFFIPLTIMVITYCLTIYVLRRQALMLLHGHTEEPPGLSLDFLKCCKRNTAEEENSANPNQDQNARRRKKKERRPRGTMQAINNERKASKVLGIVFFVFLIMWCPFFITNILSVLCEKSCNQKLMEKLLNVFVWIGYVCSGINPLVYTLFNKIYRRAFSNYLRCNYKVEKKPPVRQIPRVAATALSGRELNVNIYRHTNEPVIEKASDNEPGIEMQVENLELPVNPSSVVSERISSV

Compound	Ki ([1]; read-out: h-5-HT2C Ki) [nM]	Ki ([2]; read-out: h-5-HT2A Ki) [nM]	Ki [1, 3] [nM]	Ki [2, 4] [nM]
CCCCOc1ccc(CN(Cc2coc(C)n2)C(=O)NC2CCN(C)CC2)cc1F [Compound I-087]	< 10	< 10		
CCCCOc1ccc(CN(Cc2coc(C)n2)C(=O)N[C@H]2CCN(C)CC23CC3)cc1 [Compound I-089]	< 10	< 10		
CCCCOc1ccc(CN(Cc2coc(C)n2)C(=O)N[C@H]2CCN(C)CC23CC3)cc1F [Compound I-090]	< 10	< 10		
CCCCOc1ccc(CN(Cc2coc(C)n2)C(=O)N[C@H]2CCN(C)CC23CC3)c(F)c1 [Compound I-091]	< 10	< 10		
CC(C)COc1ccc(CN(Cc2ccn(C)c2)C(=O)OC2CCN(C)CC2)cc1 [Compound I-092]	< 10	< 10		
CC(C)COc1ccc(CN(Cc2ccc(F)cn2)C(=O)OC2CCN(C)CC2)cc1 [Compound I-093]	10 to 100	< 10		
COc1ccc(CN(Cc2ccn(C)c2)C(=O)OC2CCN(C)CC2)cc1 [Compound I-094]	10 to 100	< 10		
COc1ccc(CN(Cc2coc(C)n2)C(=O)OC2CCN(C)CC2)cc1 [Compound I-095]	10 to 100	10 to 100		
CCCCOc1ccc(CN(Cc2cnn(C)n2)C(=O)N[C@H]2CCN(C)CC23CC3)cc1F [Compound I-096]	< 10	< 10		
CCCCOc1ccc(CN(Cc2cnn(C)n2)C(=O)N[C@H]2CCN(C)CC23CC3)c(F)c1 [Compound I-097]	< 10	< 10		
CCCCOc1ccc(CN(Cc2cnn(C)n2)C(=O)N[C@H]2CCN(C)CC23CC3)cc1 [Compound I-098]	< 10	< 10		
CCCCOc1ccc(CN(Cc2cnn(C)n2)C(=O)NC2CCN(C)CC2)cc1F [Compound I-100]	< 10	< 10		
CC(C)COc1ccc(CN(Cc2cnn(C)n2)C(=O)NC2CCN(C)CC2)cc1 [Compound I-101]			0.461	0.683
CC(C)COc1ccc(CN(Cc2cnn(C)n2)C(=O)N[C@H]2CCN(C)CC23CC3)cc1 [Compound I-103]			0.634	1.89
Cc1nc(CN(Cc2ccc(CCC(F)(F)F)cc2F)C(=O)NC2CCN(C)CC2)co1 [Compound I-104]			0.484	0.952
Cc1nc(CN(Cc2ccc(CCC(F)(F)F)cc2)C(=O)NC2CCN(C)CC2)co1 [Compound I-105]	< 10	< 10		
CCCCOc1ccc(CN(Cc2coc(C)n2)C(=O)CN2CCN(C)CC2)cc1 [Compound I-106]	< 10	< 10		
CCCc1ccc(CN(Cc2coc(C)n2)C(=O)NC2CCN(C)CC2)cc1F [Compound I-107]			0.34	0.549

— patent publication US20240083872A1, “CYCLIC AMINE DERIVATIVES HAVING SEROTONIN RECEPTOR BINDING ACTIVITY” (Shionogi & Co., Ltd., priority 2020, published 2024)
